Experimental data reported in paper PMC11187190, “Structural insights into GABAA receptor potentiation by Quaalude” (Nature Communications, 2024).
Several values for one entry are separate records, joined by “and”; a condition that tells them apart may be missing. Equal values may be shown once. Entries after “also recorded” stand apart in the source; their conditions may differ. Read-outs that look alike come from different tables or passages of the source.

What was measured:
[1] = system: α1M236Wβ2γ2 GABAA receptor; settings: α1M236W, cited from earlier work
[2] = system: α1M236Aβ2γ2 GABAA receptor; settings: α1M236A; cited from earlier work
α1β2γ2 GABAA receptor [3] = settings: cited from earlier work
[4] = system: α1β2M286Aγ2 GABAA receptor; settings: β2M286A; cited from earlier work
[5] = system: α1β2M286Wγ2 GABAA receptor; settings: β2M286W, cited from earlier work
[6] = system: α1β2N265Mγ2 GABAA receptor; settings: β2N265M, cited from earlier work
[7] = system: β2N265M mutant α1β2γ2 GABAA receptor; experiment: Whole-cell patch-clamp electrophysiology, TMD site mutant incl. diazepam competition; type: cell-based; settings: for Effect on potentiation by diazepam (competition assay): diazepam 1 µM, methaqualone 100 µM
Method: (§1) Whole-cell voltage-clamp recordings were collected on the adherent HEK293S GnTI^− that were transiently transfected with the tri-cistronic pEZT construct used for structural analyses, as well as with GFP protein in pEZT for selection. The amount of plasmids used for transfection was 0.2–0.6 μg, and transfection was performed according to Lipofectamine2000 manufacturer’s protocol. The protein was expressed for 1–3 days at 30 °C. On the day of recording, cells were plated onto a 35 mm dish and washed with bath solution (140 mM NaCl, 2.4 mM KCl, 4 mM MgCl2, 4 mM CaCl2, 10 mM HEPES pH 7.3, and 10 mM glucose). Borosilicate pipettes were pulled and polished to an initial resistance of 2–4 MΩ. Pipettes were filled with the pipette solution (100 mM CsCl, 30 mM CsF, 10 mM NaCl, 10 mM EGTA, and 20 mM HEPES pH 7.3). Cells were clamped at −75 mV. The recordings were made using an Axopatch 200B amplifier, sampled at 5 kHz, and low pass filtered at 2 kHz using Digidata 1440 A (Molecular Devices), and analyzed with pClamp 10 software (Molecular Devices). Ligand solutions were prepared in a bath solution. A gravity-driven RSC-200 rapid solution changer (Bio-Logic) was used for solution exchange.
Statistical analysis in Fig. 3 and Fig. 4 was performed using GraphPad Prism 9.2.0 software (GraphPad Software, Inc., La Jolla, CA). Data are expressed as means ± standard deviation of at least three recordings from independent cells. The two-tailed Welch’s t-test was used. A p-value of ≤0.05 was considered statistically significant.

[8] = system: β1-containing GABAA receptors; settings: cited from earlier work
βM286W GABAA receptor = settings: cited from earlier work
β2/3N265M GABAA receptor = settings: cited from earlier work
[9] = system: α1H102R α1β2γ2 GABAA receptor; settings: 300 µM methaqualone; cited from earlier work
[10] = system: α6β1S265Nδ GABAA receptor; settings: β1S265N in α6β1δ, cited from earlier work
[11] = system: α6β2N265Sδ GABAA receptor; settings: β2N265S in α6β2δ, cited from earlier work
[12] = target: T1, α1Y210A/γ2F77A mutant α1β2γ2 GABAA receptor (Homo sapiens, UniProt P14867+P18507+P47870, DEL344-414/DEL362-381/DEL386-444/F116A/F383Q/G341Q/I446A/K384P/R340S/S415R/S417A/V416A/Y237A/Y342P); experiment: Whole-cell patch-clamp electrophysiology, benzodiazepine-site double mutant; type: cell-based; settings: 500 µM and 1000 µM methaqualone with GABA EC10, vs cryo-EM construct
T1 construct: twin-strep tag (N); expressed in transfected cells; host or cells: HEK293S GnTI- (text: HEK cells)
T1 sequence (P14867 with tags, fused parts or gaps Y237A/R340S/G341Q/Y342P/DEL344-414/S415R/V416A/S417A): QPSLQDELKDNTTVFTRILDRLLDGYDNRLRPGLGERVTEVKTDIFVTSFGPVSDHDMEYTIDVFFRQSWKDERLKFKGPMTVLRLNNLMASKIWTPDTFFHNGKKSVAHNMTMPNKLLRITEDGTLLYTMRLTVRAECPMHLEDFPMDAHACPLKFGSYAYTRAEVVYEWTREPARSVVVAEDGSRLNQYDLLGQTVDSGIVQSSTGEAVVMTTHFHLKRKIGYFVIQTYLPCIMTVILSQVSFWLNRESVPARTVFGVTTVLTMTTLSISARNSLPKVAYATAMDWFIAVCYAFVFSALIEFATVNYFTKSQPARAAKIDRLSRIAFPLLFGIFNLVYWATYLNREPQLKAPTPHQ
T1 sequence (P47870 with tags, fused parts or gaps): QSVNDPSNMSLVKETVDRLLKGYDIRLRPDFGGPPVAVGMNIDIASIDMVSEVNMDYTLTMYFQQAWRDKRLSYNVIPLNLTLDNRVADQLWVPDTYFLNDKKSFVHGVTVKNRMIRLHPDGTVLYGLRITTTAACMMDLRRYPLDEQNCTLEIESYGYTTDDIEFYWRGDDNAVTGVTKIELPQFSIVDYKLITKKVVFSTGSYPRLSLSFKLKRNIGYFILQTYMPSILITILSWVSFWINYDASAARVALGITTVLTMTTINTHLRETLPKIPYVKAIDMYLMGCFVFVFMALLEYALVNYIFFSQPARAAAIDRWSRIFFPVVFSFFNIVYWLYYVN
T1 sequence (P18507 with tags, fused parts or gaps F116A/DEL362-381/F383Q/K384P/DEL386-444/I446A): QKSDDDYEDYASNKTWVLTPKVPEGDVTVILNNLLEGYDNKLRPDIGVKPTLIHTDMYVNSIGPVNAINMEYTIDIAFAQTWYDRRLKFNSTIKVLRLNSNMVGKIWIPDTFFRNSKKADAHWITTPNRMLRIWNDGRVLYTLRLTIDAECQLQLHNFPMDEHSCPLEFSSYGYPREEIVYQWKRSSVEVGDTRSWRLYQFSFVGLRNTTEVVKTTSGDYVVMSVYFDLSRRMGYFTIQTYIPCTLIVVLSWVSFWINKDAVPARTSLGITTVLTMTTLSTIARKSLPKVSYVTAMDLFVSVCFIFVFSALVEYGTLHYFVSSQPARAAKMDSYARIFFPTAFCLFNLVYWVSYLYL
Method: as §1, with “A gravity-driven RSC-200 rapid solution changer (Bio-Logic) was used for solution exchange.” left out
Statistical analysis in Fig. 3 and Fig. 4 was performed using GraphPad Prism 9.2.0 software (GraphPad Software, Inc., La Jolla, CA). Data are expressed as means ± standard deviation of at least three recordings from independent cells. […]

α1β2γ2 GABAA receptor [13] = system: α1β2γ2 GABAA receptor; design: method as in Zhu S et al., 2018; settings: ref Zhu S et al., 2018, cited from earlier work

For NCCCC(=O)O [GABA, γ-aminobutyric acid], the “Effect of mutation on receptor sensitivity to GABA” value [1] is listed as “increases receptor sensitivity to GABA”.

In the case of Cc1ccc(-n2c(-c3ccccc3)nc3ccccc3c2=O)cc1 [PPTQ, 2-phenyl-3-(p-tolyl)-quinazolin-4(3H)-one], the “Effect of mutation on PAM activity” value [2] is given as “negligible effects; also recorded: No significant difference”, the “Effect of mutation on direct activation (agonist activity)” value (from here on “Effect of mutation on direct activation”) [2] is given as “negligible effects; also recorded: No significant difference” and the “Higher modulatory potency (EC50 value) than methaqualone” value (α1β2γ2 GABAA receptor [3]; α1β2γ2 receptor subtype) is given as ~50 fold. For the same molecule, the “Effect of mutation on PAM activity” value [4] was “significantly decreases its PAM efficacy; also recorded: decreased PAM activity”, the “Effect of mutation on direct activation” value [4] was “completely abolishes PPTQ agonist activity; also recorded: Elimination of direct activation” and the “Effect of mutation on PAM activity” value [1] was “PAM efficacy plummets; also recorded: decreased PAM activity”. For the same molecule, the “Effect of mutation on direct activation” value [1] was “dramatically more efficacious agonists; also recorded: Pronounced increase in direct activation”, the “Effect of mutation on PAM activity” value [5] was “significantly decreases its PAM efficacy; also recorded: pronounced decrease in PAM activity” and the “Effect of mutation on direct activation” value [5] was “completely abolishes PPTQ agonist activity; also recorded: Elimination of direct activation”. The “Effect of mutation on PAM activity” value [6] was “reduces the PAM activity of methaqualone and PAM and agonist activities of PPTQ significantly; also recorded: Elimination” and the “Effect of mutation on direct activation” value [6] was “reduces the PAM activity of methaqualone and PAM and agonist activities of PPTQ significantly; also recorded: Elimination”.

With CN1C(=O)CN=C(c2ccccc2)c2cc(Cl)ccc21 [diazepam] the “Relative current, GABA EC10 + DZ 1uM” value ([7]; N265M, relative to GABA EC10, single recordings, listed as DZ) was 1.349 and 1.602 and 1.299 and 1.556.

For CCOC(=O)c1cncn1[C@H](C)c1ccccc1 [etomidate], the “Activity at receptors with serine at the β265 position” value [8] is given as “remain active”, the “Effect of mutation on PAM activity” value [2] is given as “increases etomidate modulatory efficacy” and the “Effect of mutation on PAM and agonist activities” value (βM286W GABAA receptor) is given as “detrimental to the PAM and agonist activities”. For the same molecule, the “Effect of mutation on PAM activity” value [1] was “PAM efficacy plummets”, the “Effect of mutation on direct activation” value [1] was “dramatically more efficacious agonists” and the “Effect of mutation on potentiation” value (β2/3N265M GABAA receptor) was “almost entirely eliminates potentiation by etomidate”.

For Cc1ccccc1-n1c(C)nc2ccccc2c1=O [methaqualone, Methaqualone], the “Effect of α1H102R mutation on potentiation” value [9] is given as “not significantly affected”, the “Effect of mutation on PAM activity” value [10] is given as “from a NAM to a PAM” and the “Effect of mutation on PAM activity” value ([10]; listed as Methaqualone) is given as “Rescued PAM activity”. The “Potentiation in the presence of saturating concentrations of flumazenil” value (α1β2γ2 GABAA receptor [3]; 300 µM methaqualone) was “not significantly affected”, the “Shape of PAM concentration-response curve” value (α1β2γ2 GABAA receptor [3]; decreasing degree of potentiation above 300 µM) was “bell-shaped concentration-response curve” and the Agonist activity (α1β2γ2 GABAA receptor [3]; very high concentrations (200–1000 µM)) was “minute but significant agonist activity”. For the same molecule, the “Effect of mutation on PAM activity” value [11] was “from a PAM into a NAM”, the “Effect of mutation on PAM activity” value ([11]; listed as Methaqualone) was “Elimination of PAM activity” and the “Methaqualone-mediated modulation: effect of the two mutations” value [12] was “affected neither”. The “Effect of β2N265M mutation on methaqualone potentiation” value ([7]; 100 µM methaqualone with GABA EC10) was “most of the methaqualone activity was lost”, the “Effect on receptor activation by GABA” value ([7]; 100 µM methaqualone, β2N265M) was “no measurable effect” and the “Effect on potentiation by diazepam (competition assay)” value ([7]; β2N265M) was “block much of the PAM activity of diazepam”. The “Effect on potentiation by diazepam (competition assay)” value ([7]; β2N265M, listed as MQ) was “inhibit diazepam potentiation”, the “Effect of mutation on PAM activity” value [1] was “PAM efficacy plummets” and the “Effect of mutation on direct activation” value [1] was “dramatically more efficacious agonists”. The “Effect of mutation on direct activation” value ([1]; listed as Methaqualone) was “Pronounced increase in direct activation”, the “Effect of mutation on PAM activity” value [5] was “more subtle decrease” and the “Effect of mutation on PAM activity” value ([5]; listed as Methaqualone) was “Decreased PAM activity”. The “Effect of mutation on PAM activity” value [6] was “reduces the PAM activity of methaqualone and PAM and agonist activities of PPTQ significantly” and the “Effect of mutation on PAM activity” value ([6]; listed as Methaqualone) was “Almost eliminated PAM activity”.

In the case of CC(C)c1cccc(C(C)C)c1O [propofol], the “Activity at receptors with serine at the β265 position” value [8] is given as “remain active”, the “Effect of mutation on PAM and agonist activities” value (βM286W GABAA receptor) is given as “detrimental to the PAM and agonist activities” and the “Effect of mutation on potentiation” value (β2/3N265M GABAA receptor) is given as “significantly reduces potentiation of propofol”.

For “Fab: Fab fragment of 1F4 monoclonal antibody against the α1 subunit, used for cryo-EM particle alignment”, the “Effect on flumazenil's activity or binding affinity” value (α1β2γ2 GABAA receptor [13]) is listed as “no significant effect” and the “Shift of the EC50 for GABA to the left” value (α1β2γ2 GABAA receptor [13]; weak positive allosteric modulator) is listed as 2.5 fold.
